Data taken from PubChem BioAssay AID1033 (Sanford-Burnham Center for Chemical Genomics, 2008).
The source made the active and inactive calls. No rule for the calls is given here.

target: Chaperone protein DnaK (Escherichia coli (strain K12)) (UniProt P0A6Y8); experiment: E. coli DnaK SBD ligand binding – biophysical, NMR, chaperone (AID 1033); conditions: Purified DnaK SBD
Sequence (P0A6Y8 whole entry, looked up): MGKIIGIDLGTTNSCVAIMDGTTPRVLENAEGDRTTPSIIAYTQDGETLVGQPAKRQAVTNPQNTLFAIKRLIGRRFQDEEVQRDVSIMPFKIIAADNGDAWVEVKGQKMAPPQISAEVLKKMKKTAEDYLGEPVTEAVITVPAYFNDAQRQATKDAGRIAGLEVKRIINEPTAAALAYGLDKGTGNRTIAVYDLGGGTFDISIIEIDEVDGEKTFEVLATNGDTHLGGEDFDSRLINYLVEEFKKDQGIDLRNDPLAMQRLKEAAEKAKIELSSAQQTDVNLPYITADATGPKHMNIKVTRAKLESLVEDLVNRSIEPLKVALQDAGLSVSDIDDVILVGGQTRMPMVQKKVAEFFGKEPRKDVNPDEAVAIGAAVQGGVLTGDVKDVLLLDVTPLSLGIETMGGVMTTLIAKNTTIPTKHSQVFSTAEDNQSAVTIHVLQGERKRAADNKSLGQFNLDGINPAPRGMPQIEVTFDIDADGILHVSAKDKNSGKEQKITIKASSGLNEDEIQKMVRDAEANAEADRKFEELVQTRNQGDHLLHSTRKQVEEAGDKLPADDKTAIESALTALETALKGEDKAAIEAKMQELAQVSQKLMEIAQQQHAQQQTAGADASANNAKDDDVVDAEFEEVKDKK

Structure (SMILES) | Kd
Cn1c2c(c(=O)n(C)c1=O)CN(Cc1ccco1)CN2 | > 4 mM (inactive)
CC(=O)Nc1ccc(NC2SC(=O)NC2=O)cc1 (centres undefined) | > 4 mM (inactive)
COc1ccc(-c2coc3c(OC)c(OC)cc(O)c3c2=O)cc1 | > 4 mM (inactive)
CNC(=S)Nc1cccc(C(=O)O)c1 | > 4 mM (inactive)
Cc1ccc(S(=O)(=O)CC(=O)N2CCCC2)cc1 | > 4 mM (inactive)
Oc1ccc(C(=S)N2CCOCC2)cc1 | > 4 mM (inactive)
O=c1c2ccccc2oc2ccc(O)cc12 | > 4 mM (inactive)
COC1CC(O[C@H]2CC[C@]3(C=O)C4CC[C@]5(C)C(C6=CC(=O)OC6)CC[C@]5(O)C4CC[C@]3(O)C2)OC(C)C1O (some centres undefined) | > 4 mM (inactive)
O=C(Nc1ccc(N2CCOCC2)cc1)C1CC1 | > 4 mM (inactive)
CC1=NN2C(=N)CC(=O)N=C2S1 | > 4 mM (inactive)
c1csc(-c2nn[nH]n2)c1 | > 4 mM (inactive)
CC(=O)Nc1nnc(-c2ccncc2)s1 | > 4 mM (inactive)
C=C(C)[C@H]1CC=C(C(=O)O)CC1 | > 4 mM (inactive)
CC12CNCC(C)(CNC1)C2O (centres undefined) | > 4 mM (inactive)
NCC1COc2ccccc2O1 (centres undefined) | > 4 mM (inactive)
CC1CCN(C(=O)c2cc3ccccc3o2)CC1 | > 4 mM (inactive)
C=CCCCCCCCCCCCC(O)CC(O)COC(C)=O (centres undefined) (tested in a mixture with another compound) | > 4 mM (inactive)
C=C1C2CC[C@@]3(C)[C@H](c4ccoc4)OC(=O)C[C@]13O[C@H]1CC(=O)C(C)(C)C(CC(=O)OC)C21C (some centres undefined) | > 4 mM (inactive)
CCC1(CC)C(=O)NC(=O)N=C1N | > 4 mM (inactive)
Cc1cc(C(=O)Nc2cccnc2)cs1 | > 4 mM (inactive)
Cc1nc2c(n1O)CCc1c-2no[n+]1[O-] | > 4 mM (inactive)
COc1ccc2c(c1)OCC(Cc1ccc(OC)c(OC)c1)C2=O (centres undefined) | > 4 mM (inactive)
c1ccc(Cc2nnc3sc(-c4ccncc4)nn23)cc1 | > 4 mM (inactive)
COc1ccc2c(CC(=O)O)coc2c1 | > 4 mM (inactive)

Structure (SMILES) | Kd
COc1ccccc1NC(=O)C1CCC(=O)N1 (centres undefined) | > 4 mM (inactive)
CC(=O)N1CN(C(C)=O)CN(C(C)=O)C1 | > 4 mM (inactive)
COc1ccc2[nH]c(O)c(NC(C)=O)c2c1 | > 4 mM (inactive)
COc1ccc([C@H]2Oc3c(I)c(OC)cc(OC)c3C[C@@H]2O)cc1OC | > 4 mM (inactive)
CC(CC(=O)NN)C1(O)CCCCC1 (centres undefined) | > 4 mM (inactive)
CCOC(=O)CC1NCCNC1=O (centres undefined) | > 4 mM (inactive)
Cc1ccc(Nc2nc(N)nc(CC#N)n2)cc1 | > 4 mM (inactive)
O=C(O)CSCC(=O)Nc1cccc(O)c1 | > 4 mM (inactive)
O=C(O)c1scc2c1CCCC2 | > 4 mM (inactive)
NC(=O)NC(=O)Nc1ccc(Cl)cc1 | > 4 mM (inactive)
CC(=O)c1ccc(-n2ccnc2)cc1 | > 4 mM (inactive)
S=c1[nH]ncn1-c1ccccc1 | > 4 mM (inactive)
COC(=O)c1c(C)c2c(c(C)c1O)OC(=O)c1c(C)c(Cl)c(O)c(Cl)c1O2 | > 4 mM (inactive)
CC(C)=CCc1c2c(c3occ(-c4ccc(O)c(O)c4)c(=O)c3c1O)C=CC(C)(C)O2 | > 4 mM (inactive)
CC1CCN(C(=O)c2ccc(NS(C)(=O)=O)cc2)CC1 | > 4 mM (inactive)
CC(=O)Oc1ccc(/C=C/c2cc(OC(C)=O)cc(OC(C)=O)c2)cc1 | > 4 mM (inactive)
O=c1c2ccccc2ncn1C1CCCCC1 | > 4 mM (inactive)
O=C(O)CCCCC1SCC2NC(=O)NC21 (centres undefined) | > 4 mM (inactive)
Cn1nnc2cc(CO)ccc21 | > 4 mM (inactive)
NC1=NC(=O)/C(=C/c2cccc([N+](=O)[O-])c2)S1 | > 4 mM (inactive)
Cc1nc(-c2ccccc2)sc1CN | > 4 mM (inactive)
O=C1CC(NCc2ccco2)C(=O)NN1 (centres undefined) | > 4 mM (inactive)
CCOC(=O)CN1C(=O)c2ccccc2C1=O | > 4 mM (inactive)
CN(C)c1ccc(C2CC(=O)CC(=O)C2)cc1 | > 4 mM (inactive)

Structure (SMILES) | Kd
Nc1ncnc2c1ncn2CCN1CCOCC1 | > 4 mM (inactive)
c1cnc(N2CCNCC2)nc1 | > 4 mM (inactive)
NCc1ccc(N2CCOCC2)cc1 | > 4 mM (inactive)
CC1(C)Oc2ccc(N)cc2O1 | > 4 mM (inactive)
COc1c(OC)c2occc2c2oc(=O)ccc12 | > 4 mM (inactive)
NC(=O)C1CCN(S(=O)(=O)c2ccccc2)CC1 | > 4 mM (inactive)
CC(=O)N1CCN(c2ccc(O)cc2)CC1 | > 4 mM (inactive)
C[C@@H]1CC[C@@]23CCC4(C)[C@@](C=CC5[C@@]6(C)CCC(=O)C(C)(C)C6CC[C@]54C)(OC2=O)C3[C@H]1C (some centres undefined) | > 4 mM (inactive)
CC(=O)c1cccc(NC(=O)Nc2c(C)nn(C)c2C)c1 | > 4 mM (inactive)
COc1c(O)cc2c(-c3ccccc3)cc(=O)oc2c1OC | > 4 mM (inactive)
CCN1CCC(NC2CCCCNC2=O)CC1 (centres undefined) | > 4 mM (inactive)
Cc1nc(-c2ccc(CO)s2)cs1 | > 4 mM (inactive)
Cc1noc(C)c1C(=O)N1CCc2ccccc21 | > 4 mM (inactive)
O=C(c1ccc(N2CCNCC2)cc1)c1cccnc1 | > 4 mM (inactive)
Cc1csc(NC(=O)c2cccs2)n1 | > 4 mM (inactive)
CC1(C)C(=O)C=C[C@@]2(C)C1CC(=O)[C@]1(C)C2CC[C@@]2(C)[C@H](c3ccoc3)OC(=O)[C@H]3O[C@]321 (some centres undefined) | > 4 mM (inactive)
N#Cc1cc2c(nc1SCc1ccncc1)CCC2 | > 4 mM (inactive)
Cc1cc(C)n2nc(-c3cccnc3)nc2n1 | > 4 mM (inactive)
CNC(=O)Cn1c(=O)n(C)c2ccccc21 | > 4 mM (inactive)
O=C(NCCO)c1ccccc1I | > 4 mM (inactive)
OCc1ccc2c(c1)OCCCO2 | > 4 mM (inactive)
CC(=O)Nc1cccc(Cn2cccn2)c1 | > 4 mM (inactive)
O=C(Nn1cnnc1)c1csc2ccccc12 | > 4 mM (inactive)
Nc1cccc2nsnc12 | > 4 mM (inactive)

Structure (SMILES) | Kd
Nc1cc(C(=O)N2CCCC2)cc(C(=O)N2CCCC2)c1 | > 4 mM (inactive)
COc1cc2nc(-c3cccs3)oc(=O)c2cc1OC | > 4 mM (inactive)
O=C(Nc1ncccn1)c1cccc(F)c1 | > 4 mM (inactive)
CC(=O)Nc1cccc(N2CCCC2=O)c1 | > 4 mM (inactive)
CC(C)(C)c1cc(N)n[nH]1 | > 4 mM (inactive)
O=c1[nH]cc(NCc2ccccc2)c(=O)[nH]1 | > 4 mM (inactive)
O=c1[nH]c(O)c(C=NCc2cccs2)c(=O)[nH]1 | > 4 mM (inactive)
OC1(c2ccc(Cl)cc2)CCNCC1 | > 4 mM (inactive)
O=[n+]1c(CO)c(CO)n([O-])c2ccccc21 | > 4 mM (inactive)
CN(C)C(=O)Nc1ccc2c(c1)nnn2C | > 4 mM (inactive)
Cc1noc(C)c1C(=O)N1CCC(Cc2ccccc2)CC1 | > 4 mM (inactive)
O=C(Nc1ccccc1)c1cccc(N2C(=O)CCC2=O)c1 | > 4 mM (inactive)
Nc1ncc2[nH]cnc2n1 | > 4 mM (inactive)
O=c1cnnc(SCCc2ccccc2)[nH]1 | > 4 mM (inactive)
O=C1N=C(N2CCOCC2)S/C1=C\c1cccnc1 | > 4 mM (inactive)
O=C1CCc2ccccc2CN1 | > 4 mM (inactive)
CNC(=O)c1ccc([N+](=O)[O-])cc1Cl | > 4 mM (inactive)
O=C(Nc1ccon1)c1ccc(Cl)s1 | > 4 mM (inactive)
CN(C(N)=O)C1(C)CCS(=O)(=O)C1 (centres undefined) | > 4 mM (inactive)
COc1cc(C(=S)N2CCC(C(N)=O)CC2)ccc1O | > 4 mM (inactive)
CN1CN(Cc2ccccc2)CN/C1=N/[N+](=O)[O-] | > 4 mM (inactive)
Cc1ccc2c(C)c(C(=O)Nc3nnc(C)s3)oc2c1 | > 4 mM (inactive)
O=C(CSC1=NCCS1)N1CCc2ccccc21 | > 4 mM (inactive)
CC(C)NC(=O)Cc1c(O)c2ccccc2[nH]c1=O | > 4 mM (inactive)

Structure (SMILES) | Kd
O=C1c2ccc(F)cc2C(=O)N1CO | > 4 mM (inactive)
O=c1[nH]c(N2CCOCC2)nc2ccccc12 | > 4 mM (inactive)
CN(C)c1oc(-c2ccccc2Cl)nc1C#N | > 4 mM (inactive)
COc1ccc(-c2ccc(SCC(N)=O)nn2)cc1 | > 4 mM (inactive)
Cc1ccc(N2CCN(C(=O)c3ccccc3)CC2)c(C)c1 | > 4 mM (inactive)
N/C(=N/O)C1COc2ccccc2O1 (centres undefined) | > 4 mM (inactive)
O=C(O[C@@H]1Cc2c(O)cc(O)cc2O[C@@H]1c1cc(O)c(O)c(O)c1-c1c([C@H]2Oc3cc(O)cc(O)c3C[C@H]2O)cc(O)c(O)c1O)c1cc(O)c(O)c(O)c1 | > 4 mM (inactive)
Nc1ccc(CN2CCOCC2)cc1 | > 4 mM (inactive)
CN1CCC(NC(=O)c2c(F)cccc2Cl)CC1 | > 4 mM (inactive)
Cc1ccccc1NC(=O)c1ocnc1C | > 4 mM (inactive)
COc1cc([C@@H]2c3cc4c(c(O)c3C[C@H]3COC(=O)[C@@H]32)OCO4)cc(OC)c1OC | > 4 mM (inactive)
NC(=O)c1ccc(N=Cc2ccc[nH]2)cc1 | > 4 mM (inactive)
O=c1[nH]c(=S)[nH]c2c1CCC2 | > 4 mM (inactive)
Nc1nc(-c2ccccc2)cc(=O)[nH]1 | > 4 mM (inactive)
O=C(Nc1ccncc1)c1c(F)cccc1F | > 4 mM (inactive)
CC(=O)Oc1ccccc1N1C(=O)C=CC1=O | > 4 mM (inactive)
O=C(CSc1nc2ccccc2[nH]1)N1CCCCC1 | > 4 mM (inactive)
CC(C)(C)CC(=O)N1CCC(C(N)=O)CC1 | > 4 mM (inactive)
COC(=O)[C@]1(C)CCC[C@]2(C)c3ccc(C(C)C)cc3C(=O)CC12 (some centres undefined) | > 4 mM (inactive)
Nc1nc2ncc(CNc3ccc(C(=O)N[C@@H](CCC(=O)O)C(=O)O)cc3)nc2c(=O)[nH]1 | > 4 mM (inactive)
O=C(O)[C@H](O)[C@@](O)(Cc1ccc(O)cc1)C(=O)O | > 4 mM (inactive)
CC1CCCN(C/C(O)=C(\C#N)c2nc3ccccc3[nH]2)C1 (centres undefined) | > 4 mM (inactive)
NC(=O)c1ccsc1NC(=O)c1ccco1 | > 4 mM (inactive)
